The text below walks through data of US5684026A, “Aminocyclopentane derivative” (priority 1994, dated 1997).

Common to all, as to assay type: biochemical
For experiment [1], the target named is β-Glucosidase (Almonds, EC 3.2.1.21). The experiment in a line: β-Glucosidase enzyme inhibition assay (p-nitrophenyl β-D-glucopyranoside). The conditions noted are these: for IC50: pH 5.0, 37° C., 45 minutes. How it is done:
(§1) By using a 96-well microplate, the absorbance (at 405 nm) of liberated p- or o-nitrophenol was measured with a microplate reader (MPR-4Ai, manufactured by Tosoh Corporation).
(§2) Incubation was carried out at 37° C. by using a natural incubator (Compact NIB-10, manufactured by Iwaki Glass Co., Ltd.).
(§3) The enzymes employed herein [α-glucosidase (Baker's yeast), β-glucosidase (Almonds), α-galactosidase (E. coli), β-galactosidase (E. coli) and β-galactosidase (Bovine Liver)] were all purchased from Sigma.
(§4) The substrates (p- or o-nitrophenylglycoside) of these enzymes were all purchased from Sigma.
2) β-Glucosidase (Almonds, EC 3.2.1.21) [described in A. Kobayashi, Agr. Biol. Chem., 26, 203-207 (1962)]
Into each well were introduced an aqueous solution of a sample (1 μl), a 0.33 mM solution of p-nitrophenyl β-D-glucopyranoside in a buffer (98 μl) and a (0.4 mg/ml) enzyme solution in the buffer (1 μl) to give a total volume of 100 μl. After incubating at 37° C. for 45 minutes, the reaction was ceased by adding a 1M aqueous solution of sodium carbonate (100 μl). Then the absorbance (A405) of p-nitrophenol liberated by this enzyme reaction was measured. To give the blank absorbance (Ablank), the sample (1 μl) and the substrate (99 μl) were incubated in the same manner and an aqueous solution of sodium carbonate (100 μl) was added followed by the measurement of the absorbance. […] As the buffer, a 0.1M acetate buffer solution (pH 5.0, prepared from NaOAc and AcOH) was employed. The IC50 was determined in the same manner as employed in the case of α-glucosidase.

Experiment [2] relates to α-Galactosidase (E. Coli, EC. 3.2.1.22). The experiment in a line: α-Galactosidase enzyme inhibition assay (p-nitrophenyl α-D-galactopyranoside). The conditions noted are these: pH 6.5, room temperature, 15 minutes. How it is done: as §1, §3, §4
3) α-Galactosidase (E. Coli, EC. 3.2.1.22) [described in H. Suzuki, S-C. Li and Y-T. Li, J. Biol. Chem., 245, 781-786 (1970)]
Into each well were introduced an aqueous solution of a sample (1 μl), a buffer (74 μl), a 9.9 mM solution of p-nitrophenyl α-D-galactopyranoside in a buffer (20 μl) and a (50 μg/ml) enzyme solution in the buffer (5 μl) to give a total volume of 100 μl. After incubating the resulting mixture at room temperature (20°-30° C.) for 15 minutes, the reaction was ceased by adding a 0.2M borate buffer solution (pH 9.8, prepared from NaOH and H3 BO3, 100 μl). Then the absorbance (A405) of p-nitrophenol liberated by this enzyme reaction was measured. To give the blank absorbance (Ablank), the sample (1 μl), the substrate (20 μl) and the buffer solution (79 μl) were incubated in the same manner and the 0.2M borate buffer solution (100 μl) was added followed by the measurement of the absorbance. To give the control absorbance ([…]), on the other hand, water (1 μl), the substrate (20 μl), the buffer solution (74 μl) and the enzyme solution (5 μl) were incubated in the same manner and the borate buffer solution (100 μl) was added followed by the measurement of the absorbance. A 0.1M phosphate buffer solution (pH 6.5, prepared from KH2 PO4 and K2 HPO4) was employed as the buffer for the enzyme reaction. The IC50 was determined in the same manner as employed in the case of α-glucosidase.

In experiment [3] the target is T1, β-Galactosidase (E. Coli, EC. 3.2.1.23) (Escherichia coli, UniProt P00722).
T1 construct: purchased Sigma; host or cells: E. coli
As to the kind of experiment: β-Galactosidase (E. coli) enzyme inhibition assay (o-nitrophenyl β-D-galactopyranoside). How it is done:
as §1, §3, §4
4) β-Galactosidase (E. Coli, EC. 3.2.1.23) [described in G. R. Craven, E. Steers, Jr. and C. B. Anfinsen, J. Biol. Chem., 240, 2468-2477 (1965)]
Into each well were introduced an aqueous solution of a sample (2 μl), a buffer (153 μl), a 20 mM solution of o-nitrophenyl β-D-galactopyranoside in a buffer (25 μl), a 100 mM 2-mercaptoethanol (10 μl) and a (10 μg/ml) enzyme solution in the buffer (10 μl) to give a total volume of 200 μl. After incubating at room temperature (20°-30° C.) for 30 minutes, the absorbance (A405) of o-nitrophenol liberated by this enzyme reaction was measured. To give the blank absorbance (Ablank), the sample (2 μl), the substrate (25 μl), the buffer solution (163 μl) and 2-mercaptoethanol (10 μl) were incubated in the same manner followed by the measurement of the absorbance. To give the control absorbance (Acontrol), on the other hand, water (2 μl), the substrate (25 μl), the buffer solution (153 μl), 2-mercaptoethanol (10 μl) and the enzyme solution (10 μl) were incubated in the same manner followed by the measurement of the absorbance. A 50 mM phosphate buffer solution (pH 7.3, prepared from KH2 PO4 and K2 HPO4, containing 1.3 mM of MgCl2) was employed as the buffer for the enzyme reaction. The IC50 was determined in the same manner as employed in the case of α-glucosidase.

Experiment [4] deals with T2, α-Glucosidase (Baker's yeast, EC 3.2.1.20) (Saccharomyces cerevisiae, UniProt P53341).
T2 construct: purchased Sigma; host or cells: Baker's yeast
The experiment in a line: α-Glucosidase enzyme inhibition assay (p-nitrophenyl α-D-glucopyranoside). The settings on record: for IC50: pH 6.8, 37° C., 30 minutes, read-out: IC50 (M) α-Glucosidase (Baker's yeast). The protocol:
as §1, §2, §3, §4
1) α-Glucosidase (Baker's yeast, EC 3.2.1.20) [described in H. Halvorson and L. Ellias, Biochim. Biophys. Acta, 30, 28-40 (1958)]
Into each well were introduced an aqueous solution of a sample (1 μl), a 0.66 mM solution of p-nitrophenyl α-D-glucopyranoside in a buffer (98 μl) and a (0.4 mg/ml) enzyme solution in the buffer (1 μl) to give a total volume of 100 μl. After incubating at 37° C. for 30 minutes, the reaction was ceased by adding a 1M aqueous solution of sodium carbonate (100 μl). Then the absorbance (A405) of p-nitrophenol liberated by this enzyme reaction was measured. To give the blank absorbance (Ablank), the sample (1 μl) and the substrate (99 μl) were incubated in the same manner and an aqueous solution of sodium carbonate (100 μl) was added followed by the measurement of the absorbance. […] The sample at each concentration, the blank and the control were treated each in two wells at the same time. As the buffer, a 0.1M phosphate buffer solution (pH 6.8, prepared from KH2 PO4 and K2 HPO4) was employed.

For experiment [5], the target named is β-Galactosidase (Bovine liver. EC 3.2.1.23). The experiment in a line: β-Galactosidase (Bovine liver) enzyme inhibition assay (o-nitrophenyl β-D-galactopyranoside). The settings on record: pH 7.3, room temperature, 30 minutes. The protocol: as §1, §3, §4
5) β-Galactosidase (Bovine liver. EC 3.2.1.23) [described in T. Aoyagi, T. Hazato, M. Kumagai, M. Hamada, T. Takeuchi and H. Umezawa, J. Antibiot., 28, 1006-1008 (1975)]
Into each well were introduced an aqueous solution of a sample (2 μl), a buffer (158 μl), a 20 mM solution of o-nitrophenyl β-D-galactopyranoside in a buffer (25 μl), a 100 mM 2-mercaptoethanol (10 μl) and a (5 mg/ml) enzyme solution in the buffer (5 μl) to give a total volume of 200 μl. After incubating at room temperature (20°-30° C.) for 30 minutes, the absorbance (A405) of o-nitrophenol liberated by this enzyme reaction was measured. To give the blank absorbance (Ablank), the sample (2 μl), the substrate (25 μl), the buffer solution (163 μl) and 2-mercaptoethanol (10 μl) were incubated in the same manner followed by the measurement of the absorbance. […] The IC50 was determined in the same manner as the one employed in the case of α-glucosidase.

T2 sequence (P53341 whole entry): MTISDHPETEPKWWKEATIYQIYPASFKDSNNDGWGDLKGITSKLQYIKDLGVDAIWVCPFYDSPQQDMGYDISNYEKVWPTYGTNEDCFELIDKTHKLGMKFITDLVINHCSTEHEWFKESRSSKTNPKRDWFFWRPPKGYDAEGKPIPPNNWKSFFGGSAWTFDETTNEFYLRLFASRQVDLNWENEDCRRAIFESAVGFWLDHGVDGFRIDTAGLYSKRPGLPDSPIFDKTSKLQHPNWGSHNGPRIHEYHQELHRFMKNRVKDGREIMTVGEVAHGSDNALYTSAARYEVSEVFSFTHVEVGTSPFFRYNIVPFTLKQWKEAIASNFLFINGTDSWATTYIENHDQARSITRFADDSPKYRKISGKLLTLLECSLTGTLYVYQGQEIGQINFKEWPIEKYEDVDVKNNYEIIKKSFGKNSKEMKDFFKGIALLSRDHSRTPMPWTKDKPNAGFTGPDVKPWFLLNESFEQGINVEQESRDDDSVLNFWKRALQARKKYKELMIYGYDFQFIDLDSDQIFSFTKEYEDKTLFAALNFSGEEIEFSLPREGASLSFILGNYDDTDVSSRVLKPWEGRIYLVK
T1 sequence (P00722 2-1024 limits assumed): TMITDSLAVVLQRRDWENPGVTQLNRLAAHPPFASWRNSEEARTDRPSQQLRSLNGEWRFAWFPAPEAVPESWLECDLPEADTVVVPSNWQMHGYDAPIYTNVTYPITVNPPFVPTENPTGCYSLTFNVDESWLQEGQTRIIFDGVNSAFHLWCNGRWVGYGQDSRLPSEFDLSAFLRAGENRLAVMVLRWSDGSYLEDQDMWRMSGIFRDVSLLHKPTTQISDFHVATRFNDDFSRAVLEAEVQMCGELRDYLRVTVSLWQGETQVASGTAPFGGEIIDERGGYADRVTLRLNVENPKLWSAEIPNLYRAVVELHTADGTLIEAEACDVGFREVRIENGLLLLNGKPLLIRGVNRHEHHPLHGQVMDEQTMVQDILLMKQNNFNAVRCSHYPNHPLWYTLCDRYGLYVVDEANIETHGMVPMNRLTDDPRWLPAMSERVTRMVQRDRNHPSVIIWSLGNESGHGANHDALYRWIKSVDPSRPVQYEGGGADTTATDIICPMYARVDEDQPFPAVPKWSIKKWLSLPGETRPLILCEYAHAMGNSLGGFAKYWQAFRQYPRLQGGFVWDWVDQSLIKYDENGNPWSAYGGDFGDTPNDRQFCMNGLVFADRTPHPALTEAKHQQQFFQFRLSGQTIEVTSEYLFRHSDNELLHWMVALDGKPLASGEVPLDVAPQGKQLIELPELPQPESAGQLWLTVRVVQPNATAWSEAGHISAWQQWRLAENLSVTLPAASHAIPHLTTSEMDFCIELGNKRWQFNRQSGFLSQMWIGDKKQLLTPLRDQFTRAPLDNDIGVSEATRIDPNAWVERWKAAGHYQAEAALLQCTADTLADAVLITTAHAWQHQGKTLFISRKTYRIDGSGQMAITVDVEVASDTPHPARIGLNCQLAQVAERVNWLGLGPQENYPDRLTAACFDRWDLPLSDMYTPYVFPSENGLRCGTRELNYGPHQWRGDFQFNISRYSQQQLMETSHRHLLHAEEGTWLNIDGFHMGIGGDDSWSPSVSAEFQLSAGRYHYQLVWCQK

Take `OC[C@@]1(O)[C@H](O)C(O)[C@@H]2OC(Nc3ccccc3)=N[C@@H]21` (stereo in doubt) [Compound 1-1D, (1R,5S,6R,7R,8S)-6-hydroxymethyl-3-phenylamino-2-oxa-4-azabicyclo[3.3.0]oct-3-ene-6,7,8-triol]: the IC50 (in general, the concentration needed to halve the response being measured) was above 300 µM in experiment [1]; above 300 µM in experiment [2]; above 300 µM in experiment [3]; 2.32e-06 M in experiment [4]; 3 µM in experiment [5].

Regarding `OC[C@@]1(O)[C@@H]2N=C(Nc3ccccc3)O[C@@H]2C(O)[C@@H]1O` (stereo in doubt) [Compound 1-1L, (1S,5R,6S,7S,8R)-6-hydroxymethyl-3-phenylamino-2-oxa-4-azabicyclo[3.3.0]oct-3-ene-6,7,8-triol], the half-inhibitory concentration (IC50) in experiment [1] is above 300 µM; in experiment [2], above 300 µM; in experiment [3] it was above 300 µM; in experiment [4], 2.93e-08 M; in experiment [5], 153 µM. For the same molecule, the “inhibitory activity against β-glucosidase (in words)” value in experiment [1] (summary of Table 1) is on record as “weak inhibitory activities”. Further, in experiment [4] (compared with deoxynojirimycin, summary of Tables 1 and 2), the “inhibitory activity against α-glucosidase (in words)” value is “remarkably strong inhibitory activities”.
